Laboratory results as given in US20080194546A1, “Pyrido-, Pyrazo- and Pyrimido-Pyrimidine Derivatives as mTOR Inhibitors” (KuDOS Pharmaceuticals Limited, priority 2005, published 2008).

Target: T1, mTOR (Homo sapiens, UniProt P42345)
T1 construct: mTOR protein was isolated from HeLa cell cytoplasmic extract by immunoprecipitation; endogenous in cells; host or cells: HeLa cell cytoplasmic extract (immunoprecipitate)
Test: Biological Assay: mTOR enzyme activity, mTOR immunoprecipitated from HeLa cell cytoplasmic extract, recombinant PHAS-1 as substrate
Assay type: biochemical
Details: Biological Assay, upper bounds; read-out: IC50 values against mTOR
Description: For mTOR enzyme activity assays, mTOR protein was isolated from HeLa cell cytoplasmic extract by immunoprecipitation, and activity determined essentially as described previously using recombinant PHAS-1 as a substrate (ref. 21).

Compound | IC50 [nM]
CC1CCCCN1c1nc(N2CCOCC2)c2ccc(-c3ccccc3)nc2n1 (centres unmarked) [1 h] | < 10000
C[C@@H]1CN(c2nc(N3CCOCC3)c3ccc(-c4ccoc4)nc3n2)C[C@H](C)O1 [Example 1aa] | < 1000
CC(=O)Nc1cccc(-c2ccc3c(N4CCOCC4)nc(N4C[C@@H](C)O[C@@H](C)C4)nc3n2)c1 [Example 1ab] | < 1000
C[C@@H]1CN(c2nc(N3CCOCC3)c3ccc(-c4ccncc4)nc3n2)C[C@H](C)O1 [Example 1ac] | < 1000
C[C@@H]1CN(c2nc(N3CCOCC3)c3ccc(-c4cnn(C)c4)nc3n2)C[C@H](C)O1 [Example 1ad] | < 1000
COc1ccc(-c2ccc3c(N4C[C@@H](C)O[C@@H](C)C4)nc(N4CCOCC4)nc3n2)cc1CO [Example 1ae] | < 1000
COCCN(CCOC)c1nc(N2CCOCC2)c2ccc(-c3ccc(OC)c(CO)c3)nc2n1 [Example 1af] | < 1000
CC(=O)c1ccc(-c2ccc3c(N4CCOCC4)nc(N4C[C@@H](C)O[C@@H](C)C4)nc3n2)s1 [Example 1ag] | < 1000
COc1ccc(-c2ccc3c(N4CCOCC4)nc(N4C[C@@H](C)O[C@@H](C)C4)nc3n2)cc1OC [Example 1ah] | < 1000
C[C@@H]1CN(c2nc(N3CCOCC3)c3ccc(-c4cccc(C(N)=O)c4)nc3n2)C[C@H](C)O1 [Example 1ai] | < 1000
Cc1cccc(-c2ccc3c(N4CCOCC4)nc(N4C[C@@H](C)O[C@@H](C)C4)nc3n2)c1 [Example 1aj] | < 1000
C[C@@H]1CN(c2nc(N3CCOCC3)c3ccc(-c4ccc5c(c4)OCO5)nc3n2)C[C@H](C)O1 [Example 1ak] | < 10000
C[C@@H]1CN(c2nc(N3CCOCC3)c3ccc(-c4ccc(Cl)s4)nc3n2)C[C@H](C)O1 [Example 1al] | < 1000
COC(=O)c1cccc(-c2ccc3c(N4CCOCC4)nc(N4C[C@@H](C)O[C@@H](C)C4)nc3n2)c1 [Example 1am] | < 1000
C[C@@H]1CN(c2nc(N3CCOCC3)c3ccc(-c4cccc5ccccc45)nc3n2)C[C@H](C)O1 [Example 1an] | < 1000
C[C@@H]1CN(c2nc(N3CCOCC3)c3ccc(-c4ccc(OC(F)(F)F)cc4)nc3n2)C[C@H](C)O1 [Example 1ao] | < 1000
C[C@@H]1CN(c2nc(N3CCOCC3)c3ccc(-c4ccc(C=O)s4)nc3n2)C[C@H](C)O1 [Example 1ap] | < 1000
CC(=O)c1ccc(-c2ccc3c(N4CCOCC4)nc(N4C[C@@H](C)O[C@@H](C)C4)nc3n2)cc1 [Example 1aq] | < 1000
C[C@@H]1CN(c2nc(N3CCOCC3)c3ccc(-c4ccc(C(=O)O)s4)nc3n2)C[C@H](C)O1 [Example 1ar] | < 1000
C[C@@H]1CN(c2nc(N3CCOCC3)c3ccc(-c4cccc(N5CCOCC5)c4)nc3n2)C[C@H](C)O1 [Example 1as] | < 1000
C[C@@H]1CN(c2nc(N3CCOCC3)c3ccc(-c4ccc5c(c4)OCCO5)nc3n2)C[C@H](C)O1 [Example 1at] | < 1000
C[C@@H]1CN(c2nc(N3CCOCC3)c3ccc(-c4cccc5cccnc45)nc3n2)C[C@H](C)O1 [Example 1ay] | < 10000
C[C@@H]1CN(c2nc(N3CCOCC3)c3ccc(-c4cncnc4)nc3n2)C[C@H](C)O1 [Example 1az] | < 10000
C[C@@H]1CN(c2nc(N3CCOCC3)c3ccc(-c4ccc5c(c4)OCCCO5)nc3n2)C[C@H](C)O1 [Example 1ba] | < 10000
CCC1CCCCN1c1nc(N2CCOCC2)c2ccc(-c3ccc(OC)c(CO)c3)nc2n1 (centres unmarked) [Example 1bc] | < 100
Cc1ccc(-c2ccc3c(N4CCOCC4)nc(N4C[C@@H](C)O[C@@H](C)C4)nc3n2)cc1 [Example 1d] | < 100
COc1ccc(-c2ccc3c(N4CCOCC4)nc(N4C[C@@H](C)O[C@@H](C)C4)nc3n2)cc1 [Example 1e] | < 100

Compound | IC50 [nM]
C[C@@H]1CN(c2nc(N3CCOCC3)c3ccc(-c4ccsc4)nc3n2)C[C@H](C)O1 [Example 1i] | < 100
C[C@@H]1CN(c2nc(N3CCOCC3)c3ccc(-c4ccc(O)cc4)nc3n2)C[C@H](C)O1 [Example 1l] | < 100
C[C@@H]1CN(c2nc(N3CCOCC3)c3ccc(-c4ccc(C#N)cc4)nc3n2)C[C@H](C)O1 [Example 1n] | < 100
COc1ccc(-c2ccc3c(N4CCOCC4)nc(N(CCO)CCO)nc3n2)cc1CO [Example 1o] | < 100
COc1ccc(-c2ccc3c(N4C[C@@H](C)O[C@@H](C)C4)nc(N4CCOC[C@@H]4C)nc3n2)cc1CO [Example 1p] | < 100
C[C@@H]1CN(c2nc(N3CCOCC3)c3ccc(-c4cccc(CO)c4)nc3n2)C[C@H](C)O1 [Example 1q] | < 100
Cc1ccc(-c2ccc3c(N4CCOCC4)nc(N4CCCC[C@@H]4C)nc3n2)cc1 [Example 1s] | < 1000
Cc1ccc(-c2ccc3c(N4CCOCC4)nc(N4C[C@@H](C)O[C@@H](C)C4)nc3n2)s1 [Example 1t] | < 1000
COc1ccc(-c2ccc3c(N4CCOCC4)nc(N4CCCC[C@@H]4C)nc3n2)cc1 [Example 1u] | < 1000
Cc1cscc1-c1ccc2c(N3CCOCC3)nc(N3C[C@@H](C)O[C@@H](C)C3)nc2n1 [Example 1v] | < 1000
COc1ccc(-c2ccc3c(N4CCOCC4)nc(N4C[C@@H](C)O[C@@H](C)C4)nc3n2)cc1F [Example 1w] | < 1000
C[C@@H]1CN(c2nc(N3CCOCC3)c3ccc(-c4ccc5[nH]ccc5c4)nc3n2)C[C@H](C)O1 [Example 1x] | < 1000
Cc1cc(-c2ccc3c(N4CCOCC4)nc(N4C[C@@H](C)O[C@@H](C)C4)nc3n2)cs1 [Example 1y] | < 1000
C[C@@H]1CN(c2nc(N3CCOCC3)c3ccc(-c4ccc([N+](=O)[O-])cc4)nc3n2)C[C@H](C)O1 [Example 1z] | < 1000
C[C@@H]1CN(c2nc(N3CCOCC3)c3ccc(Nc4ccccc4)nc3n2)C[C@H](C)O1 [Example 2a] | < 1000
C[C@@H]1CN(c2nc(N3CCOCC3)c3ccc(Nc4ccc(Cl)cc4O)nc3n2)C[C@H](C)O1 [Example 2aa] | < 1000
C[C@@H]1CN(c2nc(N3CCOCC3)c3ccc(Nc4cc(F)c(F)cc4[N+](=O)[O-])nc3n2)C[C@H](C)O1 [Example 2ac] | < 1000
CSc1nc2ccc(Nc3ccc4c(N5CCOCC5)nc(N5C[C@@H](C)O[C@@H](C)C5)nc4n3)cc2s1 [Example 2ad] | < 1000
C[C@@H]1CN(c2nc(N3CCOCC3)c3ccc(Nc4ccc(C5SCCS5)cc4)nc3n2)C[C@H](C)O1 [Example 2ae] | < 10000
C[C@@H]1CN(c2nc(N3CCOCC3)c3ccc(NC4CCCCC4)nc3n2)C[C@H](C)O1 [Example 2af] | < 1000
C[C@@H]1CN(c2nc(N3CCOCC3)c3ccc(NC4CCCC4)nc3n2)C[C@H](C)O1 [Example 2ag] | < 10000
C[C@@H]1CN(c2nc(N3CCOCC3)c3ccc(NC4CC4)nc3n2)C[C@H](C)O1 [Example 2ah] | < 1000
C[C@@H]1CN(c2nc(N3CCOCC3)c3ccc(NC4CCC4)nc3n2)C[C@H](C)O1 [Example 2ai] | < 10000
C[C@@H]1CN(c2nc(N3CCOCC3)c3ccc(NCC4CC4)nc3n2)C[C@H](C)O1 [Example 2aj] | < 10000
CC1CCC(Nc2ccc3c(N4CCOCC4)nc(N4C[C@@H](C)O[C@@H](C)C4)nc3n2)CC1 (some centres unmarked) [Example 2al] | < 10000
C=CCNc1ccc2c(N3CCOCC3)nc(N3C[C@@H](C)O[C@@H](C)C3)nc2n1 [Example 2am] | < 10000
